Measurements: patent publication US20220380338A1, “CYCLOALKYL 3-OXOPIPERAZINE CARBOXAMIDES AND CYCLOHETEROALKYL 3-OXOPIPERAZINE CARBOXAMIDES AS NAV1.8 INHIBITORS” (Merck Sharp & Dohme LLC, priority 2021, published 2022)

Target: T1, human NaV1.8 (Homo sapiens, UniProt Q9Y5Y9)
T1 construct: expressed in transfected cells
Experiment: Nav1.8 Qube® Assay (automated 384-well patch-clamp, inhibition of sodium current)
Format: cell-based
Details: human NaV1.8 channels stably expressed in HEK 293 cells, room temperature
Procedure, shortened: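 Whole-cell voltage clamp at room temperature in HEK293 cells stably expressing NaV1.8; from −90 mV hold, 10 s 1 Hz train of 20 ms pulses to 10 mV with 980 ms repolarization to −67 mV. Peak currents of 1st and 10th pulses give resting and inactivated-state IC50s, Hill fit.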

T1 sequence (Q9Y5Y9 whole entry): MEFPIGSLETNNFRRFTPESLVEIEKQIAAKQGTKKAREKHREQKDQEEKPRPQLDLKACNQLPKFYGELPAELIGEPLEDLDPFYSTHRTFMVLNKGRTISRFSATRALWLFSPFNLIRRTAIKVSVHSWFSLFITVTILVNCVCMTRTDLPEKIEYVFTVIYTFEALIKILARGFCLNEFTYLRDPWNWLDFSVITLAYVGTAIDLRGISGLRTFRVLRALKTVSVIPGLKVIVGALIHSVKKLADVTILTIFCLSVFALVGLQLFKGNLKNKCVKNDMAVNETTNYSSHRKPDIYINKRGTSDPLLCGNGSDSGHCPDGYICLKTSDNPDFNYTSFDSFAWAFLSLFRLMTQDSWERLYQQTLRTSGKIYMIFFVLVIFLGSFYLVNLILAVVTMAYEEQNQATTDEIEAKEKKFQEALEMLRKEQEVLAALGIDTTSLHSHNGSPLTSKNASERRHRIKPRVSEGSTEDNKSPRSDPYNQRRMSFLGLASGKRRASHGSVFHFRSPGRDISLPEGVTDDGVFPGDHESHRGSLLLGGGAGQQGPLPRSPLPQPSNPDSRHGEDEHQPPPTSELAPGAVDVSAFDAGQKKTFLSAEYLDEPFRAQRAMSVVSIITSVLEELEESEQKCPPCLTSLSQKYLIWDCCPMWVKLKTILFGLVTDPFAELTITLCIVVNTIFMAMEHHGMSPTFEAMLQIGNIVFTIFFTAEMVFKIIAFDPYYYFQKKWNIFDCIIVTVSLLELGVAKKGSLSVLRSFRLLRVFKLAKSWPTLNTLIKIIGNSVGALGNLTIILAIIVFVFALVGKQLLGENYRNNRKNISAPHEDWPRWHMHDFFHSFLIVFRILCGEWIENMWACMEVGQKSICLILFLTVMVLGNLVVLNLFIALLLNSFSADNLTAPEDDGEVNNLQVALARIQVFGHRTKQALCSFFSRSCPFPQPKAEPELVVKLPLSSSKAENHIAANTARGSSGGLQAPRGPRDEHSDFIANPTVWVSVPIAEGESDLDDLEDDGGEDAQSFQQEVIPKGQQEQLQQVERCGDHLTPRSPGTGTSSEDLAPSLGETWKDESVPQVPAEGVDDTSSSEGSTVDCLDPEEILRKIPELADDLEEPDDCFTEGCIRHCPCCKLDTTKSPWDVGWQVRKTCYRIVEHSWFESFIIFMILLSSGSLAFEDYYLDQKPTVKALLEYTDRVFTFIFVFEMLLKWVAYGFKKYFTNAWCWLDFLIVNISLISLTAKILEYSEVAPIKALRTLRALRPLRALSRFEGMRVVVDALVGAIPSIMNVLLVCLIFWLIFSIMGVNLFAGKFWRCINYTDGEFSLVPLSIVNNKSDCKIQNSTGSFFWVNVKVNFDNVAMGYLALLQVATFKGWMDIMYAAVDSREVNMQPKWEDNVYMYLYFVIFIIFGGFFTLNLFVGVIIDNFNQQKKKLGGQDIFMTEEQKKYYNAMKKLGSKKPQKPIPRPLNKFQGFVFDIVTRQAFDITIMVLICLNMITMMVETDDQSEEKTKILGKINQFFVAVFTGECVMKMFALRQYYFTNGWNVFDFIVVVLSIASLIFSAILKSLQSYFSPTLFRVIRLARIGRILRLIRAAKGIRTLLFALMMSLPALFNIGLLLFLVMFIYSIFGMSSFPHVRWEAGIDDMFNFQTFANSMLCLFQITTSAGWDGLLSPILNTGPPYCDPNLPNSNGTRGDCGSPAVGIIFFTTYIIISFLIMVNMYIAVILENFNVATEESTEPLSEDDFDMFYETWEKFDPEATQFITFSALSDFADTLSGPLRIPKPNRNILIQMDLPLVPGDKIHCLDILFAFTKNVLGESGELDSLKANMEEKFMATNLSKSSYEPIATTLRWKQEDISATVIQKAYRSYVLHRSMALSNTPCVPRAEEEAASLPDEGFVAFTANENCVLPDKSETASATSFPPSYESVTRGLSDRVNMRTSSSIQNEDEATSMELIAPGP

| Structure (SMILES) | IC50 |
| --- | --- |
| C[C@@H]1C(=O)NCCN1C(=O)NC(c1ccc(OC(F)(F)F)cc1F)[C@H]1C[C@H](C(F)(F)F)C1 (single isomer, unassigned) [Example 50B, (2R)-N-((S or R)-(2-fluoro-4-(trifluoro-methoxy)phenyl)(trans-3-(trifluoro-methyl)-cyclobutyl)-methyl)-2-methyl-3-oxopiperazine-1-carboxamide] | 0.00901 µM |
| C[C@@H]1C(=O)NCCN1C(=O)NC(c1ccc(F)c(C(F)(F)F)c1)[C@H]1C[C@H](C(F)(F)F)C1 (single isomer, unassigned) [Example 51A, (2R)-N-((R or S)-(4-fluoro-3-(trifluoro-methyl)phenyl)(trans-3-(trifluoro-methyl)-cyclo-butyl)methyl)-2-methyl-3-oxo-piperazine-1-carboxamide] | 0.117 µM |
| C[C@@H]1C(=O)NCCN1C(=O)NC(c1ccc(F)c(C(F)(F)F)c1)[C@H]1C[C@H](C(F)(F)F)C1 (single isomer, unassigned) [Example 51B, (2R)-N-((S or R)-(4-fluoro-3-(trifluoro-methyl)phenyl)(trans-3-(trifluoro-methyl)-cyclobutyl)methyl)-2-methyl-3-oxopiperazine-1-carboxamide] | 0.00303 µM |
| O=C1CN(C(=O)NC(c2ccc(F)c(C(F)(F)F)c2)[C@H]2C[C@H](C(F)(F)F)C2)CCN1 (single isomer, unassigned) [Example 52A, N-((R or S)-(4-fluoro-3-(trifluoromethyl)phenyl) (trans-3-(trifluoro-methyl)cyclobutyl)-methyl)-3-oxo-piperazine-1-carboxamide] | 0.32 µM |
| O=C1CN(C(=O)NC(c2ccc(F)c(C(F)(F)F)c2)[C@H]2C[C@H](C(F)(F)F)C2)CCN1 (single isomer, unassigned) [Example 52B, N-((S or R)-(4-fluoro-3-(trifluoromethyl)phenyl) (trans-3-(trifluoro-methyl)cyclobutyl)-methyl)-3-oxo-piperazine-1-carboxamide] | 0.0118 µM |
| C[C@@H]1C(=O)NCCN1C(=O)NC(c1cccc(Cl)c1F)[C@H]1C[C@H](C(F)(F)F)C1 (single isomer, unassigned) [Example 53A, (2R)-N-((R or S)-(3-chloro-2-fluorophenyl)-(trans-3-(trifluoro-methyl)cyclobutyl)meth-yl)-2-methyl-3-oxo-piperazine-1-carboxamide] | 0.538 µM |
| C[C@@H]1C(=O)NCCN1C(=O)NC(c1cccc(Cl)c1F)[C@H]1C[C@H](C(F)(F)F)C1 (single isomer, unassigned) [Example 53B, (2R)-N-((S or R)-(3-chloro-2-fluorophenyl)-(trans-3-(trifluoro-methyl)cyclobutyl)meth-yl)-2-methyl-3-oxo-piperazine-1-carboxamide] | 0.00906 µM |
| C[C@@H]1C(=O)NCCN1C(=O)NC(c1ccc(OC(F)(F)F)c(Cl)c1)C1CC(C(F)(F)F)C1 (single isomer, unassigned) [Example 54A, (2R)-N-((R or S)-(3-chloro-4-(trifluoro-methoxy)phenyl)(3-(trifluoromethyl)cyclo-butyl)methyl)-2-methyl-3-oxopiperazine-1-carboxamide] | 0.0017 µM |
| C[C@@H]1C(=O)NCCN1C(=O)NC(c1ccc(OC(F)(F)F)c(Cl)c1)C1CC(C(F)(F)F)C1 (single isomer, unassigned) [Example 54B, (2R)-N-((S or R)-(3-chloro-4-(trifluoro-methoxy)phenyl)(3-(trifluoromethyl)cyclo-butyl)methyl)-2-methyl-3-oxopiperazine-1-carboxamide] | 0.00418 µM |
| C[C@@H]1C(=O)NCCN1C(=O)NC(c1csc(C(F)(F)F)n1)[C@H]1CC[C@H](C(F)(F)F)CC1 (single isomer, unassigned) [Example 55A] | 0.494 µM |
| C[C@@H]1C(=O)NCCN1C(=O)NC(c1csc(C(F)(F)F)n1)[C@H]1CC[C@H](C(F)(F)F)CC1 (single isomer, unassigned) [Example 55B] | 0.0263 µM |
